# Measurements published in patent US11286268B1, “EIF4E-inhibiting compounds and methods” (EFFECTOR THERAPEUTICS, INC., priority 2019, dated 2022).
# Where two headings read alike, the source gives them in different places.
# Target: recombinant eIF4E (Homo sapiens (Human), UniProt P06730)
# Experiment: Fluorescence polarization competition assay for eIF4E binding potency
# In short: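 Protein and fluorescent cap-analog probe (EDA-m7GDP-ATTO-550) were mixed first for 5 min, after which serially diluted compound was added to final 75 nM eIF4E, 20 nM probe, 1% DMSO. Reactions equilibrated 30 min at room temperature before polarization was measured.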
# [1] = fluorescence polarization competition, 75 nM recombinant eIF4E, 20 nM EDA-m7GDP-ATTO-550, IC50 class, read-out: elF4E FP
# [2] = inhibition of eIF4E/EDA-m7GDP-ATTO-550 binding by 50%, Table 4B calculated values, read-out: IC50
# recombinant eIF4E, sequence (P06730 whole entry): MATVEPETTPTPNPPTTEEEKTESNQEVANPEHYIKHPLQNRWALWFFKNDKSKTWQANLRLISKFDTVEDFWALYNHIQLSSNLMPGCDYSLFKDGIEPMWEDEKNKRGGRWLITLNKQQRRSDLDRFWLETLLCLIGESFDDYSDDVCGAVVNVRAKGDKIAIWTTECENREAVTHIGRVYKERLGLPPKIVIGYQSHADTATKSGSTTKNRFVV
SMILES,IC50 [1],IC50 [2]
Cc1cc(-c2cc(Cl)ccc2OCCn2c(C)nc3ccc(CN4CCN(C)CC4)c(C#N)c3c2=O)c2scc(C(=O)O)c2n1 [compound 647],< 50 nM,19.8 nM
Cc1cc(-c2cc(Cl)ccc2OCCn2c(C)nc3cc(C(F)(F)F)c(CN4CCNCC4)c(C#N)c3c2=O)c2scc(C(=O)O)c2n1 [compound 649],< 50 nM,15 nM
Cc1nc2cc(CN(C)Cc3cn(C)nn3)c(OC(F)F)c(C#N)c2c(=O)n1CCOc1ccc(Cl)cc1-c1ccnc2c(C(=O)O)csc12 [compound 651],< 50 nM,21.8 nM
Cc1cc(-c2cc(Cl)ccc2OCCn2c(C)nc3cc(C(F)(F)F)c(C4CN(C)C4)c(C#N)c3c2=O)c2scc(C(=O)O)c2n1 [compound 652],< 50 nM,6.68 nM
Cc1cc(-c2cc(Cl)ccc2OCCn2c(C)nc3cc(-c4cccnc4)cc(C#N)c3c2=O)c2scc(C(=O)O)c2n1 [compound 654],< 50 nM,3.12 nM
Cc1nc2cc(C(F)(F)F)c(N3CCN(CCF)CC3)c(C#N)c2c(=O)n1CCOc1ccc(Cl)cc1-c1ccnc2c(C(=O)O)csc12 [compound 655],< 50 nM,13.5 nM
Cc1nc(N2CCN(C)C3CC32)c(C#N)c2c(=O)n(CC#Cc3ccc(Cl)cc3-c3ccnc4c(C(=O)O)csc34)c(C)nc12 (stereo not drawn) [compound 656],< 50 nM,33.4 nM
N#Cc1cccc2c1c(=O)n(CCOc1ccc(Cl)cc1-c1ccnc3c(C(=O)O)csc13)c1ccccc21 [compound 657],< 50 nM,45.7 nM
O=C(O)c1csc2c(-c3cc(Cl)ccc3OCCn3c(=O)c4ccccc4c4cnncc43)ccnc12 [compound 658],> 1000 nM,1290 nM
Cc1nc2c(ccc3cnncc32)c(=O)n1CCOc1ccc(Cl)cc1-c1ccnc2c(C(=O)O)csc12 [compound 659],< 50 nM,26.4 nM
Cc1nc2cc(C(F)(F)F)cc(C#N)c2c(=O)n1CCOc1ccc(Cl)cc1-c1cncc(-c2nn[nH]n2)c1 [compound 660],50 to 1000 nM,258 nM
Cc1nc2cc(C(F)(F)F)cc(C#N)c2c(=O)n1CCOc1ccc(Cl)cc1-c1ccnc2c(C(=O)O)cnn12 [compound 661],< 50 nM,12.1 nM
Cc1nc2cc(C(F)(F)F)cc(C#N)c2c(=O)n1CCOc1ccc(Cl)cc1-c1ccnc(-c2nnn[nH]2)c1 [compound 662],50 to 1000 nM,144 nM
Cc1nc2cc(C(F)(F)F)cc(C#N)c2c(=O)n1CCOc1ccc(Cl)cc1-c1ccnc2c(O)csc12 [compound 663],50 to 1000 nM,332 nM
COC(=O)c1sc2cc(-c3cc(Cl)ccc3OCCn3c(C)nc4cc(C(F)(F)F)cc(C#N)c4c3=O)cnc2c1O [compound 664],50 to 1000 nM,153 nM
Cc1c(CC#Cc2ccc(Cl)cc2-c2ccnc3c(C(=O)O)csc23)c(=O)c2c(C#N)cc(C(F)(F)F)cc2n1C [compound 665],< 50 nM,16.5 nM
Cc1nc2cc(C(F)(F)F)cc(C#N)c2c(=O)n1CCOc1ccc(Cl)cc1-c1ccnc2c(C(=O)O)c(C(F)(F)F)sc12 [compound 666],50 to 1000 nM,268 nM
Cc1nc2cc(C(F)(F)F)cc(C#N)c2c(=O)n1CCOc1ccc(Cl)cc1-c1ccnc2c(C(=O)O)c(C(C)C)sc12 [compound 667],< 50 nM,46.7 nM

SMILES,IC50 [1],IC50 [2]
Cc1cc(-c2cc(Cl)ccc2OCCn2c(C)nc3cc(C(F)(F)F)cc(C#N)c3c2=O)c2sc(C)c(C(=O)O)c2n1 [compound 668],< 50 nM,7.76 nM
Cc1c(CC#Cc2ccc(Cl)cc2-c2ccnc3c(C(=O)O)csc23)c(=O)c2c(C#N)c(Cl)c(C(F)(F)F)cc2n1C [compound 669],< 50 nM,36.4 nM
Cc1cc(-c2cc(Cl)ccc2OCCn2c(C)nc3cc(C(F)(F)F)c(CN(C)C)c(C#N)c3c2=O)c2sc(C)c(C(=O)O)c2n1 [compound 670],< 50 nM,18 nM
Cc1cc(-c2cc(Cl)ccc2OCCn2c(C)nc3c(ccc4cnncc43)c2=O)c2scc(C(=O)O)c2n1 [compound 671],50 to 1000 nM,77.7 nM
Cc1nc2cc(C(F)(F)F)cc(C#N)c2c(=O)n1CCOc1ccc(Cl)cc1-c1cc(C2CC2)nc2c(C(=O)O)csc12 [compound 672],50 to 1000 nM,106 nM
Cc1cc(-c2cc(Cl)ccc2OCCn2c(C)nc3c(C)ncc(C#N)c3c2=O)c2scc(C(=O)O)c2n1 [compound 673],< 50 nM,25.3 nM
Cc1ncc(C#N)c2c(=O)n(CCOc3ccc(Cl)cc3-c3ccnc4c(C(=O)O)csc34)c(C)nc12 [compound 674],< 50 nM,–
Cc1cccc(-c2c(C(F)(F)F)cc3nc(C)n(CCOc4ccc(Cl)cc4-c4cc(C)nc5c(C(=O)O)csc45)c(=O)c3c2C#N)n1 [compound 675],< 50 nM,7.77 nM
Cc1cc(-c2cc(Cl)ccc2OCCn2c(C)nc3cc(C(F)(F)F)c(N4CCN(C)CC4)nc3c2=O)c2scc(C(=O)O)c2n1 [compound 676],< 50 nM,6.22 nM
Cc1cc(-c2cc(Cl)ccc2OCCn2c(C)nc3c(C(F)(F)F)cc(N4CCN(C)CC4)nc3c2=O)c2scc(C(=O)O)c2n1 [compound 677],< 50 nM,5.44 nM
Cc1cc(-c2cc(Cl)ccc2OCCn2c(C)nc3ccc(N4CCN(C)CC4)nc3c2=O)c2scc(C(=O)O)c2n1 [compound 678],50 to 1000 nM,53.8 nM
Cc1cc(-c2cc(Cl)ccc2OCCn2c(C)nc3ccc(N(C)C)nc3c2=O)c2scc(C(=O)O)c2n1 [compound 679],50 to 1000 nM,160 nM
Cc1cc(-c2cc(Cl)ccc2OCCn2c(C)nc3c(C(F)(F)F)cc(Cl)nc3c2=O)c2scc(C(=O)O)c2n1 [compound 680],50 to 1000 nM,56.6 nM
Cc1nc2cc(C(F)(F)F)c(N3CCN(C)CC3)nc2c(=O)n1CC#Cc1ccc(Cl)cc1-c1ccnc2c(C(=O)O)csc12 [compound 682],< 50 nM,6.21 nM
Cc1cccc(-c2c(Cl)cc3nc(C)n(CCOc4ccc(Cl)cc4-c4cc(C)nc5c(C(=O)O)c(C)sc45)c(=O)c3c2C#N)n1 [compound 683],< 50 nM,40.3 nM
Cc1cc(F)cc(-c2c(C(F)(F)F)cc3nc(C)n(CCOc4ccc(Cl)cc4-c4cc(C)nc5c(C(=O)O)csc45)c(=O)c3c2C#N)n1 [compound 684],< 50 nM,15 nM
Cc1cc(-c2cc(Cl)ccc2OCCn2c(C)nc3cc(C(F)(F)F)c(-c4ccnc(C)c4C)c(C#N)c3c2=O)c2scc(C(=O)O)c2n1 [compound 686],< 50 nM,26.5 nM
Cc1cc(-c2cc(Cl)ccc2OCCn2c(C)nc3cc(C(F)(F)F)c(N4CC(F)(F)C4)c(C#N)c3c2=O)c2scc(C(=O)O)c2n1 [compound 687],< 50 nM,13.5 nM

# Second part, the compound after the results:
IC50 [1],IC50 [2],SMILES
< 50 nM,28.3 nM,Cc1cc(-c2cc(Cl)ccc2OCCn2c(C)nc3cc(CN(C)C)c(C)c(C#N)c3c2=O)c2scc(C(=O)O)c2n1 [compound 650]
< 50 nM,22.7 nM,Cc1cc(-c2cc(Cl)ccc2OCCn2c(C)nc3cc(Cl)c(-c4cccnc4)c(C#N)c3c2=O)c2scc(C(=O)O)c2n1 [compound 653]
< 50 nM,–,Cc1cc2nc(C)n(CCOc3ccc(Cl)cc3-c3cc(C)nc4c(C(=O)O)csc34)c(=O)c2c(C#N)n1 [compound 685]
< 50 nM,22.8 nM,Cc1cc(-c2cc(Cl)ccc2OCCn2c(C)nc3cc(Cl)c(N4CC(F)(F)C4)c(C#N)c3c2=O)c2scc(C(=O)O)c2n1 [compound 688]
< 50 nM,11.5 nM,Cc1cc(-c2cc(Cl)ccc2OCCn2c(C)nc3cc(Cl)c(N4CC(C(F)(F)F)C4)c(C#N)c3c2=O)c2scc(C(=O)O)c2n1 [compound 689]
< 50 nM,5.95 nM,Cc1cc(-c2cc(Cl)ccc2OCCn2c(C)nc3cc(Cl)c(N4CCC(F)(F)C4)c(C#N)c3c2=O)c2scc(C(=O)O)c2n1 [compound 690]
< 50 nM,7.17 nM,Cc1cc(-c2cc(Cl)ccc2OCCn2c(C)nc3cc(Cl)c(N4CC(C)(C)C4)c(C#N)c3c2=O)c2scc(C(=O)O)c2n1 [compound 691]
< 50 nM,5.97 nM,Cc1cc(-c2cc(Cl)ccc2OCCn2c(C)nc3cc(Cl)c(N)c(C#N)c3c2=O)c2scc(C(=O)O)c2n1 [compound 692]
< 50 nM,15 nM,Cc1cc(-c2cc(Cl)ccc2OCCn2c(C)nc3cc(Cl)cc(C#N)c3c2=O)c2scc(C(=O)O)c2n1 [compound 693]
< 50 nM,19.1 nM,CNc1c(Cl)cc2nc(C)n(CCOc3ccc(Cl)cc3-c3cc(C)nc4c(C(=O)O)csc34)c(=O)c2c1C#N [compound 694]
< 50 nM,1.05 nM,Cc1cc(-c2cc(Cl)ccc2OCCn2c(C)nc3cc(Cl)c(O)c(C#N)c3c2=O)c2scc(C(=O)O)c2n1 [compound 695]
< 50 nM,8.94 nM,Cc1cc(-c2cc(Cl)ccc2OCCn2c(C)nc3cc(Cl)c(N(C)C)c(C#N)c3c2=O)c2scc(C(=O)O)c2n1 [compound 696]
< 50 nM,10.2 nM,Cc1cc(-c2cc(Cl)ccc2OCCn2c(C)nc3cc(Cl)c(N4CCCC4=O)c(C#N)c3c2=O)c2scc(C(=O)O)c2n1 [compound 697]
< 50 nM,3.4 nM,Cc1cc(-c2cc(Cl)ccc2OCCn2c(C)nc3cc(Cl)c(N4CC(O)C4)c(C#N)c3c2=O)c2scc(C(=O)O)c2n1 [compound 698]
< 50 nM,22.4 nM,Cc1cc(-c2cc(Cl)ccc2OCCn2c(C)nc3cc(Cl)c(Nc4cccnc4)c(C#N)c3c2=O)c2scc(C(=O)O)c2n1 [compound 700]
< 50 nM,19.2 nM,COC1CN(c2c(Cl)cc3nc(C)n(CCOc4ccc(Cl)cc4-c4cc(C)nc5c(C(=O)O)csc45)c(=O)c3c2C#N)C1 [compound 701]
